According to US20260234173A1, “STRUCTURED MOLECULAR VECTORS FOR ANTI-INFLAMMATORY COMPOUNDS AND USES THEREOF” (Universite Claude Bernard Lyon 1, priority 2019, published 2026):

Test system: fully amygdala-kindled rats
Assay: Seizure severity in fully amygdala-kindled rats (Racine's scale)
Type: in vivo, rat
Experimental: All animal procedures were in compliance with the guidelines of the European Union (directive 2010-63), regulating animal experimentation, and have been approved by the ethical committee of the Claude Bernard Lyon 1 University. Male Sprague-Dawley rats (Envigo, France) were used in these experiments. They were housed in a temperature-controlled room (23±1° C.) under diurnal lighting conditions (lights on from 6 a.m to 6 p.m). Rats arrived 15 days prior to the beginning of the experiments. They were maintained in groups of 2 in 800 cm2 plastic cages comprising minimal environmental enrichment (nesting cardboard material, wooden gnowing sticks), and had free access to food and water.
For surgical implantation of kindling electrodes, rats weighing 220-240 g were anesthetized using isoflurane (5% induction; 2% maintenance) and treated with the analgesic drug buprenorphine (0.050 mg/kg, i.m.). Their heads were positioned in a stereotaxic apparatus with the incisor bar set at −3.3 mm. Burr holes were drilled for the placement of three stainless steel jewelers' screws in the left parietal, right frontal and occipital bones, and over the site of implantation of the electrode used for amygdala kindling. This stimulation and recording electrode consisted of a teflon-isolated bipolar stainless-steel electrode aimed at the right basolateral amygdala (stereotaxic coordinates relative to Bregma: anterior-posterior, −2.8 mm; lateral, +4.8 mm; dorso-ventral, −8.5 mm). The screws placed above the parietal cortex and the frontal cortex served as recording electrodes, and the placed above the cerebellum served as grounding. Bipolar, recording and grounding electrodes were connected to a plug anchored to the skull with dental acrylic cement.
Electrical stimulation via the kindling electrode was initiated after a recovery period of 1 week after surgery, and was performed at the same time of the day (between 9:00 and 11:00 A.M. and then between 4:00 and 6:00 P.M.) to avoid intraday variance between animals. Constant current stimulations (500 μA, biphasic square-wave pulses, 50 pulses/s for 2 s) were delivered twice daily until at least 5 fully kindled seizures (secondarily generalized stage 5 seizures) were elicited. Seizure severity was classified behaviorally according to Racine's scale: stage 1, immobility, slight facial clonus (eye closure, twitching of vibrissae, sniffing); stage 2, head nodding associated with more severe facial clonus; stage 3, clonus of one forelimb; stage 4, rearing, often accompanied by bilateral forelimb clonus; stage 5, tonic-clonic seizure accompanied by loss of balance and falling.
To evaluate the effect of SYN-PN on seizure severity, SYN-PN was prepared in saline and injected intraperitoneally at 5, 10 or 50 mg/kg, 45 min prior to electrical stimulation in fully kindled rats. Briefly, the day after the last stage 5 seizure, on day 1, the rats received a first dose of SYN-PN (5 mg/kg) and were stimulated 45 minutes later. At D2 and D5, they were stimulated without SYN-PN injection to evaluate the residual effect of the 5 mg/kg dose. On D6, they received a second dose of SYN-PN (10 mg/kg) and were stimulated 45 minutes later. They were then simulated at D7 and D8 to evaluate the residual effect of the 10 mg/kg dose. On D9, rats received a third dose of SYN-PN (50 mg/kg) and were stimulated 45 minutes later. They were then simulated at D10 and D11 to evaluate the residual effect of the 50 mg/kg dose. Finally, they received 1) a daily dose of SYN-PN at 5 mg/kg from D12 to D15 and were stimulated at D16; 2) a daily dose of SYN-PN at 10 mg/kg from D19 to D22 and were stimulated at D23; and 3) a daily dose of SYN-PN at 20 mg/kg from D26 to D29 and were stimulated at D30. The treatments were then stopped. However, to assess the persistence of the effects of this series of treatments, rats continued to be stimulated at 7, 15, 42 and 56 days after the last treatment at 20 mg/kg.

**Q.** `CCC=CCC=CCC=CCC=CCC=CCC=CCCC(=O)NCCP(=O)(O)O` [synaptamide phosphonate] was tested. Which “rats with absence of seizures 15 days after stopping treatment” value (all rats (n=15)) did it give?
**A.** 7/15

**Q.** And the “decrease of mean seizure severity” value (all rats (n=15), D1, 5 mg/kg i.p. 45 min before stimulation)?
**A.** 19.0±7.9%

**Q.** And the “seizure severity compared to D0” value (all rats (n=15), D2, day after 5 mg/kg, no injection)?
**A.** −23.1±8.1%

**Q.** And the “effect of 5 mg/kg on seizure severity at D5” value (all rats (n=15), D5, no injection)?
**A.** lost

**Q.** And the “seizure severity compared to D0” value (all rats (n=15), D6, 10 mg/kg i.p. 45 minutes before stimulation)?
**A.** not significantly different from that at D0

**Q.** And the “seizure severity compared to D0” value (all rats (n=15), D16, after daily 5 mg/kg from D12)?
**A.** −42.0±9.2%

**Q.** And the “seizure severity compared to D0” value (all rats (n=15), the next day and the day after 10 mg/kg (D7-D8), at the most)?
**A.** −39.4±11.1%

**Q.** What about the “delay of the maximum effect on seizure severity after administration” value (any dose) of the same compound?
**A.** 24 to 48 h

**Q.** What about the “rats responding to 5 mg/kg” value (decrease in seizure severity first observed at 5 mg/kg i.p.) of the same compound?
**A.** 8/15

**Q.** And the “rats responding to 10 mg/kg” value (decrease in seizure severity first observed at 10 mg/kg i.p.)?
**A.** 3/15

**Q.** And the “rats responding to 50 mg/kg” value (decrease in seizure severity first observed at 50 mg/kg i.p.)?
**A.** 4/15

**Q.** What about the “seizure severity compared to D0” value (rats responding to 5 mg/kg (n=8), D16 after daily 5 mg/kg) of the same compound?
**A.** −87.0±13.0%

**Q.** And the “seizure severity compared to D0” value (rats responding to 5 mg/kg (n=8), same day of administration)?
**A.** −36.4±11.7%

**Q.** What about the “average severity of seizures on increasing the daily dose from 5 to 10, then to 20 mg/kg” value (rats responding to 5 mg/kg, 4 daily doses each) of the same compound?
**A.** did not change the average severity of seizures

**Q.** And the “rats remaining at stage 0” value (rats responding to 5 mg/kg, D16 after daily 5 mg/kg)?
**A.** 7/8

**Q.** And the “rats free from seizures” value (rats responding to 5 mg/kg, after 4 daily doses of 5 mg/kg)?
**A.** 7/8

**Q.** What about the “rats free from seizures” value (rats responding to 5 mg/kg, after 4 daily doses of 10 mg/kg) of the same compound?
**A.** 4/8

**Q.** What about the “decrease of seizure severity compared to D0” value (rats responding to 10 mg/kg (n=3)) of the same compound?
**A.** not significantly different from DO

**Q.** And the “severity reduction at D16” value (rats responding to 10 mg/kg (n=3), after 5 mg/kg for 4 days)?
**A.** maintained

**Q.** What about the “decrease of seizure severity compared to D0” value (rats responding to 50 mg/kg (n=4)) of the same compound?
**A.** too variable to observe a significant effect

**Q.** What about the “seizure reduction at D16” value (rats responding to 50 mg/kg (n=4), after 5 mg/kg for 4 days) of the same compound?
**A.** only transient and lost at D16

**Q.** And the “duration of the protective effect against seizures after stopping treatment” value (rats responding to 50 mg/kg, after high doses (20 mg/kg))?
**A.** up to 15 days

**Q.** What about the “persistence of seizure freedom after stopping treatment” value (substantial population of rats) of the same compound?
**A.** free of seizures, even after almost two months of stopping treatment
